Test results as given in patent US5164190A, “Subsaturated transdermal drug delivery device exhibiting enhanced drug flux” (Theratech, Inc., priority 1990, dated 1992).
Where a name gives a salt, the structure may show the parent alone. Read-outs that look alike come from different tables or passages of the source. One block for each compound: values may come before it.

Legend:
[1] = type: in vitro ADME, human
Description: (§1) The term "skin flux" intends the rate of transfer of drug across skin as measured by the method of Merritt and Cooper (J Controlled Release (1984) 1:161). The units of flux are preferably μg/cm^2 /hr.
(§2) The following examples further illustrate the invention and its unique characteristics. These examples are not intended to limit the invention in any manner. In the following examples in vitro steady state transdermal flux across human cadaver skin was determined using the method of Merritt and Cooper, supra. Unless otherwise indicated percentages and proportions are by volume.
Formulations of progesterone at varying concentrations were made by mixing progesterone with the indicated ingredients and applied to cadaver skin. The meanings of the abbreviations that appear in the table are: Gly=glycerine; GDO=glycerol dioleate; ML=methyl laurate; OA=oleic acid; GMO=glycerol monooleate.
Additional progesterone systems were formulated and tested as in Example 1. Abbreviations are as in Example 1. Progesterone was present at saturation in system 1 and below saturation in systems 2-6.
Formulations of the hydrophilic drugs oxybutynin HCl and mecamylamine HCl were prepared and tested as in Examples 1 and 2. The formulations of Table 3 containing oxybutynin HCl at 40 mg/ml were saturated and the formulations of Table 4 containing 80 mg/ml of mecamylamine HCl were saturated. All other systems were at drug concentrations below saturation.
[…]. The matrix containing 30% norethindrone acetate was saturated; all others were subsaturated.

[2] = cumulative permeation at 24 hr through skin in vitro; type: in vitro ADME, human; conditions: for Cumulative Permeation: 24 hr
Description: as §1
as §2, with “volume. […]” for “volume.”
[…]. The matrix containing 8% estradiol was saturated; the others were subsaturated.
The matrix containing 8% estradiol was saturated; the others were subsaturated.

Compound: CCN(CC)CC#CCOC(=O)C(O)(c1ccccc1)C1CCCCC1 (stereo not shown) [Oxybutyrin, oxybutynin HCl]
Flux ([1]; Table 3 system 1, 5 mg/ml, 40/53/5/2 EtOH/H2O/Gly/GMO, N=3): 5.6 ± 0.9 μg/cm^2 /hr
Flux ([1]; Table 3 system 1, 10 mg/ml, 40/53/5/2 EtOH/H2O/Gly/GMO, N=6): 13.3 ± 2.6 μg/cm^2 /hr
Flux ([1]; Table 3 system 1, 20 mg/ml, 40/53/5/2 EtOH/H2O/Gly/GMO, N=12): 16.9 ± 5.2 μg/cm^2 /hr
Flux ([1]; Table 3 system 1, 40 mg/ml (saturated), 40/53/5/2 EtOH/H2O/Gly/GMO, N=4): 29.1 ± 11.2 μg/cm^2 /hr
Flux ([1]; Table 3 system 2, 5 mg/ml, 40/54/5/1 EtOH/H2O/Gly/GMO, N=3): 8.0 ± 1.4 μg/cm^2 /hr
Flux ([1]; Table 3 system 2, 10 mg/ml, 40/54/5/1 EtOH/H2O/Gly/GMO, N=6): 10.1 ± 3.3 μg/cm^2 /hr
Flux ([1]; Table 3 system 2, 20 mg/ml, 40/54/5/1 EtOH/H2O/Gly/GMO, N=12): 17.5 ± 5.1 μg/cm^2 /hr
Flux ([1]; Table 3 system 2, 40 mg/ml (saturated), 40/54/5/1 EtOH/H2O/Gly/GMO, N=5): 38.8 ± 18.9 μg/cm^2 /hr
Flux ([1]; Table 3 system 3, 5 mg/ml, 30/63/5/2 EtOH/H2O/Gly/GMO, N=3): 2.2 ± 0.2 μg/cm^2 /hr
Flux ([1]; Table 3 system 3, 10 mg/ml, 30/63/5/2 EtOH/H2O/Gly/GMO, N=9): 8.3 ± 3.8 μg/cm^2 /hr
Flux ([1]; Table 3 system 3, 20 mg/ml, 30/63/5/2 EtOH/H2O/Gly/GMO, N=12): 14.8 ± 6.1 μg/cm^2 /hr
Flux ([1]; Table 3 system 3, 40 mg/ml (saturated), 30/63/5/2 EtOH/H2O/Gly/GMO, N=6): 23.9 ± 10.0 μg/cm^2 /hr
Flux ([1]; Table 3 system 4, 5 mg/ml, 30/64/5/1 EtOH/H2O/Gly/GMO, N=3): 1.7 ± 0.3 μg/cm^2 /hr
Flux ([1]; Table 3 system 4, 10 mg/ml, 30/64/5/1 EtOH/H2O/Gly/GMO, N=6): 5.4 ± 2.5 μg/cm^2 /hr
Flux ([1]; Table 3 system 4, 20 mg/ml, 30/64/5/1 EtOH/H2O/Gly/GMO, N=15): 13.6 ± 5.2 μg/cm^2 /hr
Flux ([1]; Table 3 system 4, 40 mg/ml (saturated), 30/64/5/1 EtOH/H2O/Gly/GMO, N=6): 27.5 ± 13.1 μg/cm^2 /hr

Cumulative Permeation ([2]; Table 7, 1% estradiol, acrylic adhesive matrix with 20% sorbitan monooleate, S.D. 1.40): 11.36 μg/cm^2
Cumulative Permeation ([2]; Table 7, 2% estradiol, acrylic adhesive matrix with 20% sorbitan monooleate, S.D. 6.24): 28.31 μg/cm^2
Cumulative Permeation ([2]; Table 7, 3% estradiol, acrylic adhesive matrix with 20% sorbitan monooleate, S.D. 6.64): 40.88 μg/cm^2
Cumulative Permeation ([2]; Table 7, 4% estradiol, acrylic adhesive matrix with 20% sorbitan monooleate, S.D. 4.46): 44.94 μg/cm^2
Cumulative Permeation ([2]; Table 7, 6% estradiol, acrylic adhesive matrix with 20% sorbitan monooleate, S.D. 3.03): 22.56 μg/cm^2
Cumulative Permeation ([2]; Table 7, 8% estradiol (saturated), acrylic adhesive matrix with 20% sorbitan monooleate, S.D. 5.25): 12.93 μg/cm^2
Cumulative Permeation ([2]; Table 8, 1% estradiol, acrylic adhesive matrix without permeation enhancer, S.D. 1.84): 9.33 μg/cm^2
Cumulative Permeation ([2]; Table 8, 2% estradiol, acrylic adhesive matrix without permeation enhancer, S.D. 1.42): 16.55 μg/cm^2
Cumulative Permeation ([2]; Table 8, 3% estradiol, acrylic adhesive matrix without permeation enhancer, S.D. 2.16): 21.21 μg/cm^2
Cumulative Permeation ([2]; Table 8, 4% estradiol, acrylic adhesive matrix without permeation enhancer, S.D. 0.64): 16.11 μg/cm^2
Cumulative Permeation ([2]; Table 8, 6% estradiol, acrylic adhesive matrix without permeation enhancer, S.D. 0.27): 18.42 μg/cm^2
Cumulative Permeation ([2]; Table 8, 8% estradiol (saturated), acrylic adhesive matrix without permeation enhancer, S.D. 3.93): 9.20 μg/cm^2
Compound: C[C@]12CC[C@@H]3c4ccc(O)cc4CC[C@H]3[C@@H]1CC[C@@H]2O [estradiol]
maximum permeation versus estradiol concentration ([2]; matrices with sorbitan monolaurate, ointments EtOH/H2O/Gly/GMO/ML 20/60/5/7.5/7.5): maximum permeation was observed at estradiol concentrations below saturation

Compound: CC(C)NCC(O)COc1cccc2[nH]ccc12 (stereo not shown) [pindolol free base, pindolol]
dependence of flux on drug concentration ([1]; ointment and solid matrix systems): classic Fickian dependence of flux on drug concentration

Flux ([1]; Table 1 system 1, 75.0 mg/ml (saturated), 60/22.5/10/2.5/2.5/2.5 EtOH/H2O/Gly/GDO/ML/OA, N=8): 2.12 ± 0.47 μg/cm^2 /hr
Flux ([1]; Table 1 system 2, 50 mg/ml, 60/22.5/10/2.5/2.5/2.5 EtOH/H2O/Gly/GDO/ML/OA, N=18): 4.51 ± 1.37 μg/cm^2 /hr
Flux ([1]; Table 1 system 3, 25 mg/ml, 60/22.5/10/2.5/2.5/2.5 EtOH/H2O/Gly/GDO/ML/OA, N=3): 5.52 ± 1.38 μg/cm^2 /hr
Flux ([1]; Table 1 system 4, 75 mg/ml (saturated), 60/22.5/10/2.5/2.5/2.5 EtOH/H2O/Gly/GMO/ML/OA, N=8): 3.35 ± 2.18 μg/cm^2 /hr
Flux ([1]; Table 1 system 5, 50 mg/ml, 60/22.5/10/2.5/2.5/2.5 EtOH/H2O/Gly/GMO/ML/OA, N=18): 7.63 ± 3.00 μg/cm^2 /hr
Flux ([1]; Table 1 system 6, 37.5 mg/ml, 60/22.5/10/2.5/2.5/2.5 EtOH/H2O/Gly/GMO/ML/OA, N=6): 8.18 ± 0.90 μg/cm^2 /hr
Flux ([1]; Table 1 system 7, 25 mg/ml, 60/22.5/10/2.5/2.5/2.5 EtOH/H2O/Gly/GMO/ML/OA, N=18): 6.37 ± 1.88 μg/cm^2 /hr
Flux ([1]; Table 1 system 8, 10 mg/ml, 60/22.5/10/2.5/2.5/2.5 EtOH/H2O/Gly/GMO/ML/OA, N=3): 1.84 ± 0.33 μg/cm^2 /hr
flux at subsaturated concentrations versus at saturation ([1]; Table 1 systems, except 8): significantly greater
Flux ([1]; Table 2 system 1, 50 mg/ml (saturated), 60/22.5/10/2.5/2.5/2.5 EtOH/H2O/Gly/GDO/ML/OA, N=12): 6.01 ± 1.73 μg/cm^2 /hr
Flux ([1]; Table 2 system 2, 30 mg/ml, 60/28/10/1/1 EtOH/H2O/Gly/GMO/ML, N=3): 13.03 ± 3.35 μg/cm^2 /hr
Flux ([1]; Table 2 system 3, 25 mg/ml, 60/28/10/1/1 EtOH/H2O/Gly/GMO/ML, N=3): 12.98 ± 2.06 μg/cm^2 /hr
Flux ([1]; Table 2 system 4, 20 mg/ml, 60/28/10/1/1 EtOH/H2O/Gly/GMO/ML, N=9): 15.89 ± 6.81 μg/cm^2 /hr
Flux ([1]; Table 2 system 5, 15 mg/ml, 60/28/10/1/1 EtOH/H2O/Gly/GMO/ML, N=12): 13.13 ± 1.87 μg/cm^2 /hr
Flux ([1]; Table 2 system 6, 10 mg/ml, 60/28/10/1/1/1 EtOH/H2O/Gly/GMO/ML, N=5): 11.13 ± 1.98 μg/cm^2 /hr
fluxes at concentrations below saturation versus at saturation ([1]; Table 2 systems): significantly greater than at saturation
Compound: CC(=O)[C@H]1CC[C@H]2[C@@H]3CCC4=CC(=O)CC[C@]4(C)[C@H]3CC[C@]12C [progesterone]
